Source: patent publication US20090099376A1, “TIGECYCLINE AND METHODS OF PREPARING INTERMEDIATES” (Wyeth, priority 2007, published 2009)
Values after ≈ are worked out from the molar mass of the structure shown.

Key:
[1] = Dynamic vapor sorption (DVS) study; format: physicochemical; settings: RH 90%
Excerpt: As a comparison, we ran the DVS on 9-nitrominocycline. This intermediate picks up to 40% by weight of water at RH 90%.

[2] = Solubility at RT in hydrogenation solvent mixtures doped with IPA; format: physicochemical
Excerpt: An investigation by examining the solubility characteristics of 9-nitrominocycline and 9-aminominocycline sulfate in the presence of various amounts of IPA to gauge whether the starting material and/or product could in fact precipitate out in the reaction solvent was initiated.

[3] = system: vancomycin-resistant enterococci; settings: cited from earlier work
[4] = system: penicillin-resistant Streptococcus pneumoniae; settings: cited from earlier work
[5] = system: methicillin-resistant Staphylococcus aureus; settings: cited from earlier work
[6] = system: organisms carrying either of the two major forms of tetracycline resistance: efflux and ribosomal protection; settings: organisms with tetracycline resistance by efflux or ribosomal protection; cited from earlier work
[7] = 80:20 water:methanol with 20% wt/wt IPA, aqueous with cosolvent or surfactant or cyclodextrin, Exp. 8: +20% wt/wt IPA, 80:20 water:methanol
[8] = 80:20 water:methanol with 35% wt/wt IPA, aqueous with cosolvent or surfactant or cyclodextrin, Exp. 9: +35% wt/wt IPA, 80:20 water:methanol
[9] = 80:20 water:methanol with 50% wt/wt IPA, aqueous with cosolvent or surfactant or cyclodextrin, Exp. 10: +50% wt/wt IPA, 80:20 water:methanol
[10] = v:v) with 0% wt/wt IPA, organic solvent or mixture, Exp. 1: MeOH:water (99:1, v:v) +0% wt/wt IPA
[11] = v:v) with 4% wt/wt IPA, organic solvent or mixture, Exp. 2: MeOH:water (99:1, v:v) +4% wt/wt IPA
[12] = v:v) with 20% wt/wt IPA, organic solvent or mixture, Exp. 3: MeOH:water (99:1, v:v) +20% wt/wt IPA
[13] = v:v) with 35% wt/wt IPA, organic solvent or mixture, Exp. 4: MeOH:water (99:1, v:v) +35% wt/wt IPA
[14] = v:v) with 50% wt/wt IPA, organic solvent or mixture, Exp. 5: MeOH:water (99:1, v:v) +50% wt/wt IPA

| SMILES | Water uptake in DVS [1] | Solubility (in words) ([2]; 80:20 water:methanol) | solubility ([2]; 80:20 water:methanol with 0% wt/wt IPA, aqueous with cosolvent or surfactant or cyclodextrin, Exp. 6: +0% wt/wt IPA, 80:20 water:methanol) [mg/mL] | solubility ([2]; 80:20 water:methanol with 4% wt/wt IPA, aqueous with cosolvent or surfactant or cyclodextrin, Exp. 7: +4% wt/wt IPA, 80:20 water:methanol) [mg/mL] | solubility [2, 7] [mg/mL] | solubility [2, 8] [mg/mL] | solubility [2, 9] [mg/mL] | solubility [2, 10] [mg/mL] | solubility [2, 11] [mg/mL] | solubility [2, 12] [mg/mL] | solubility [2, 13] [mg/mL] | solubility [2, 14] [mg/mL] | Solubility (in words) ([2]; 99:1 methanol:water) | Solubility at RT ([2]; Exp. 6: +0% wt/wt IPA, 80:20 water:methanol) | Solubility at RT ([2]; Exp. 7: +4% wt/wt IPA, 80:20 water:methanol) | solubility ([2]; organic solvent or mixture, Exp. 11: IPA Only) [mg/mL] | Antibacterial activity [3] | Antibacterial activity [4] | Antibacterial activity [5] | Antibacterial activity [6] |
| --- | --- | --- | --- | --- | --- | --- | --- | --- | --- | --- | --- | --- | --- | --- | --- | --- | --- | --- | --- | --- |
| CN(C)c1cc([N+](=O)[O-])c(O)c2c1C[C@H]1C[C@H]3[C@H](N(C)C)C(O)=C(C(N)=O)C(=O)[C@@]3(O)C(O)=C1C2=O [9-nitrominocycline] | up to 40 % by weight | fairly high | > 421 | > 426 | > 453 | > 303 | 333 (≈ 663 mM) | > 466 | 129 (≈ 257 mM) | 68 (≈ 135 mM) | 30 (≈ 59.7 mM) | 23 (≈ 45.8 mM) |  |  |  |  |  |  |  |  |
| CN(C)c1cc(N)c(O)c2c1C[C@H]1C[C@H]3[C@H](N(C)C)C(O)=C(C(N)=O)C(=O)[C@@]3(O)C(O)=C1C2=O [9-aminominocycline] |  | high |  |  | 243 (≈ 514 mM) | 103 (≈ 218 mM) | 58 (≈ 123 mM) | 14 (≈ 29.6 mM) | 16 (≈ 33.9 mM) | 12 (≈ 25.4 mM) | 9 (≈ 19 mM) | 7 (≈ 14.8 mM) | somewhat low | high | high | 1 (≈ 2.12 mM) |  |  |  |  |
| CN(C)c1cc(NC(=O)CNC(C)(C)C)c(O)c2c1C[C@H]1C[C@H]3[C@H](N(C)C)C(O)=C(C(N)=O)C(=O)[C@@]3(O)C(O)=C1C2=O [Tigecycline, (4S,4aS,5aR,12aS)-9-[2-(tert-butylamino)acetamido]-4,7-bis(dimethylamino)-1,4,4a,5,5a,6,11,12a-octahydro-3,10,12,12a-tetrahydroxy-1,11-dioxo-2-naphthacenecarboxamide] |  |  |  |  |  |  |  |  |  |  |  |  |  |  |  |  | active | active | active | active |
